≈ marks a conversion by molar mass, not a printed value.
Columns and labels:
[1] = test system: Enterococcus spp.; experiment: minimum inhibitory concentration (MIC)
Experimental: (§1)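 Broth microdilution MIC (Sensititre BOPO7F bovine plate, CLSI methods) of 19 antimicrobials against field isolates of P. multocida, M. haemolytica, H. somni (deep nasopharyngeal swabs) and E. coli, Enterococcus spp. (rectal swabs) from weaned dairy heifers. Incubation 16-24 h at 35 C. MIC is the lowest concentration preventing visible growth. Values with <= or > lie at the tested range limits. Trimethoprim-sulfamethoxazole is given as the trimethoprim component of a 1:19 mixture.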

[2] = test system: Mannheimia haemolytica; experiment: minimum inhibitory concentration (MIC)
Experimental: as §1

CC[C@H]1OC(=O)C[C@@H](O)[C@H](C)[C@@H](O[C@@H]2O[C@H](C)[C@@H](O)[C@H](N(C)C)[C@H]2O)[C@@H](CCN2CCCCC2)C[C@@H](C)C(=O)/C=C/C(C)=C/[C@@H]1CN1CCCCC1 [Tildipirosin]
minimum inhibitory concentration [µg/mL]
Details | [1] | [2]
isolate (source animal id): 2 | 8 (≈ 10.9 µM) | –
isolate (source animal id): 8 | – | ≤ 1
isolate (source animal id): 13 | – | ≤ 1
isolate (source animal id): 18 | – | ≤ 1
isolate (source animal id): 21 | – | ≤ 1
isolate (source animal id): 25 | – | 16 (≈ 21.8 µM)
isolate (source animal id): 27 | – | 16 (≈ 21.8 µM)
isolate (source animal id): 28 | – | 4 (≈ 5.45 µM)
isolate (source animal id): 30 | – | ≤ 1
isolate (source animal id): 31 | – | 4 (≈ 5.45 µM)
isolate (source animal id): 32 | – | ≤ 1
isolate (source animal id): 34 | – | ≤ 1
isolate (source animal id): 35 | > 16 | –
isolate (source animal id): 36 | – | 16 (≈ 21.8 µM)
isolate (source animal id): 37 | – | 16 (≈ 21.8 µM)
isolate (source animal id): 40 | – | ≤ 1
isolate (source animal id): 41 | – | ≤ 1
isolate (source animal id): 42 | 8 (≈ 10.9 µM) | –
isolate (source animal id): 43 | – | ≤ 1
isolate (source animal id): 44 | 16 (≈ 21.8 µM) | –
isolate (source animal id): 46 | – | 16 (≈ 21.8 µM)
isolate (source animal id): 49 | – | 16 (≈ 21.8 µM)
isolate (source animal id): 50 | – | 16 (≈ 21.8 µM)
isolate (source animal id): 51 | – | ≤ 1
isolate (source animal id): 52 | – | ≤ 1
isolate (source animal id): 53 | – | ≤ 1
isolate (source animal id): 55 | – | ≤ 1
isolate (source animal id): 56 | – | ≤ 1
isolate (source animal id): 57 | – | > 16
isolate (source animal id): 79 | 16 (≈ 21.8 µM) | –
isolate (source animal id): 88 | 8 (≈ 10.9 µM) | –
isolate (source animal id): 91 | 8 (≈ 10.9 µM) | –
isolate (source animal id): 92 | 16 (≈ 21.8 µM) | –
isolate (source animal id): 100 | – | 16 (≈ 21.8 µM)
isolate (source animal id): 103 | – | 16 (≈ 21.8 µM)
isolate (source animal id): 107 | – | 16 (≈ 21.8 µM)
isolate (source animal id): 108 | – | 16 (≈ 21.8 µM)
isolate (source animal id): 111 | 8 (≈ 10.9 µM) | –
isolate (source animal id): 112 | – | > 16
isolate (source animal id): 113 | – | > 16
isolate (source animal id): 121 | – | 16 (≈ 21.8 µM)
isolate (source animal id): 122 | > 16 | 2 (≈ 2.72 µM)
isolate (source animal id): 123 | 16 (≈ 21.8 µM) | > 16
isolate (source animal id): 126 | – | > 16
isolate (source animal id): 133 | 8 (≈ 10.9 µM) | > 16
isolate (source animal id): 135 | – | > 16
isolate (source animal id): 138 | – | > 16
isolate (source animal id): 141 | – | > 16
isolate (source animal id): 142 | – | > 16
isolate (source animal id): 145 | – | 4 (≈ 5.45 µM)
isolate (source animal id): 149 | – | 2 (≈ 2.72 µM)
isolate (source animal id): 151 | – | 2 (≈ 2.72 µM)
isolate (source animal id): 152 | – | 16 (≈ 21.8 µM)
isolate (source animal id): 154 | – | ≤ 1
isolate (source animal id): 158 | > 16 | –
isolate (source animal id): 159 | – | > 16
isolate (source animal id): 162 | – | > 16
isolate (source animal id): 168 | > 16 | –
isolate (source animal id): 169 | 16 (≈ 21.8 µM) | –
isolate (source animal id): 170 | – | 2 (≈ 2.72 µM)
isolate (source animal id): 171 | 16 (≈ 21.8 µM) | ≤ 1
isolate (source animal id): 172 | – | 2 (≈ 2.72 µM)
isolate (source animal id): 173 | – | 2 (≈ 2.72 µM)
isolate (source animal id): 175 | > 16 | –
isolate (source animal id): 177 | > 16 | –
isolate (source animal id): 179 | – | 2 (≈ 2.72 µM)
isolate (source animal id): 180 | – | ≤ 1
isolate (source animal id): 181 | 16 (≈ 21.8 µM) | –
isolate (source animal id): 182 | 16 (≈ 21.8 µM) | –
isolate (source animal id): 183 | 8 (≈ 10.9 µM) | ≤ 1
isolate (source animal id): 186 | – | ≤ 1
isolate (source animal id): 187 | 16 (≈ 21.8 µM) | ≤ 1
isolate (source animal id): 188 | – | ≤ 1
isolate (source animal id): 190 | 16 (≈ 21.8 µM) | ≤ 1
isolate (source animal id): 191 | – | 2 (≈ 2.72 µM)
isolate (source animal id): 192 | – | ≤ 1
isolate (source animal id): 194 | 16 (≈ 21.8 µM) | –
isolate (source animal id): 195 | 16 (≈ 21.8 µM) | –
isolate (source animal id): 197 | 16 (≈ 21.8 µM) | –
isolate (source animal id): 201 | – | 2 (≈ 2.72 µM)
isolate (source animal id): 202 | – | 4 (≈ 5.45 µM)
isolate (source animal id): 209 | – | 2 (≈ 2.72 µM)
isolate (source animal id): 211 | 16 (≈ 21.8 µM) | 2 (≈ 2.72 µM)
isolate (source animal id): 214 | 16 (≈ 21.8 µM) | –
isolate (source animal id): 220 | – | 2 (≈ 2.72 µM)
isolate (source animal id): 221 | – | 2 (≈ 2.72 µM)
isolate (source animal id): 222 | 16 (≈ 21.8 µM) | –
isolate (source animal id): 223 | 8 (≈ 10.9 µM) | 2 (≈ 2.72 µM)
isolate (source animal id): 228 | > 16 | –
isolate (source animal id): 230 | > 16 | –
isolate (source animal id): 233 | – | 8 (≈ 10.9 µM)
isolate (source animal id): 235 | > 16 | –
isolate (source animal id): 236 | 8 (≈ 10.9 µM) | –
isolate (source animal id): 237 | – | 16 (≈ 21.8 µM)
isolate (source animal id): 239 | 8 (≈ 10.9 µM) | –
isolate (source animal id): 241 | > 16 | 16 (≈ 21.8 µM)
isolate (source animal id): 244 | 16 (≈ 21.8 µM) | –
isolate (source animal id): 246 | 16 (≈ 21.8 µM) | –
isolate (source animal id): 247 | > 16 | –
isolate (source animal id): 250 | 16 (≈ 21.8 µM) | –
isolate (source animal id): 252 | > 16 | 16 (≈ 21.8 µM)
isolate (source animal id): 253 | – | 16 (≈ 21.8 µM)
isolate (source animal id): 259 | – | > 16
isolate (source animal id): 260 | – | > 16
isolate (source animal id): 262 | – | 16 (≈ 21.8 µM)
isolate (source animal id): 268 | > 16 | –
isolate (source animal id): 282 | 8 (≈ 10.9 µM) | > 16
isolate (source animal id): 285 | > 16 | –
isolate (source animal id): 287 | – | > 16
isolate (source animal id): 288 | – | ≤ 1
isolate (source animal id): 289 | 16 (≈ 21.8 µM) | –
isolate (source animal id): 290 | 16 (≈ 21.8 µM) | –
isolate (source animal id): 291 | – | ≤ 1
isolate (source animal id): 293 | – | 16 (≈ 21.8 µM)
isolate (source animal id): 296 | 16 (≈ 21.8 µM) | –
isolate (source animal id): 298 | 8 (≈ 10.9 µM) | > 16
isolate (source animal id): 299 | – | > 16
isolate (source animal id): 300 | – | ≤ 1
isolate (source animal id): 301 | 8 (≈ 10.9 µM) | –
isolate (source animal id): 302 | – | > 16
isolate (source animal id): 304 | – | > 16
isolate (source animal id): 306 | – | ≤ 1
isolate (source animal id): 308 | – | ≤ 1
isolate (source animal id): 309 | – | ≤ 1
isolate (source animal id): 310 | > 16 | –
isolate (source animal id): 313 | – | > 16
isolate (source animal id): 318 | – | 8 (≈ 10.9 µM)
isolate (source animal id): 320 | 8 (≈ 10.9 µM) | ≤ 1
isolate (source animal id): 321 | – | > 16
isolate (source animal id): 323 | – | > 16
isolate (source animal id): 324 | – | 16 (≈ 21.8 µM)
isolate (source animal id): 326 | – | > 16
isolate (source animal id): 328 | – | > 16
isolate (source animal id): 329 | – | > 16
isolate (source animal id): 331 | 8 (≈ 10.9 µM) | –
isolate (source animal id): 333 | 16 (≈ 21.8 µM) | > 16
isolate (source animal id): 335 | – | 16 (≈ 21.8 µM)
isolate (source animal id): 338 | – | 16 (≈ 21.8 µM)
isolate (source animal id): 341 | > 16 | –

— the supplement of paper PMC8612539
